Patent US20250382588A1, “CHIMERIC AAV AND USES THEREOF” (priority 2023, published 2025)

Experiments:
[1] = system: retrogradely labeled D1-MSNs; assay: Striatal slice whole-cell recordings of retrogradely labeled MSNs; type: cell-based, mice; conditions: AAV8R12-G88P3-HA-hM3Dq-2A-EYFP; CNO 10 μM
Source text: Mice from different groups were anesthetized with […] isoflurane, and then decapitated. The brain was quickly extracted and placed in ice-cold N-methyl-D-glucamine (NMDG) cutting solution containing (in mM): 92 NMDG, 2.5 KCl, 25 NaHCO3, 1.25 NaH2PO4, 4.5 D-Glucose, 20 HEPES, 5 L-ascorbic acid, 3 Na-pyruvate, 2 Thiourea, 10 MgSO4, 0.5 CaCl2). The pH was adjusted to 7.2±0.1 using HCl and the osmolarity was adjusted to 305±5 mosmol/L using NMDG. The solution was bubbled with 95% O2/5% CO2 prior to use. Coronal striatum slices were cut in 250-[…] thickness with a vibratome slicer (Leica, VT1200 S), and then incubated in artificial cerebrospinal fluid (aCSF) saturated with 95% O2/5% CO2 for at least 45 min at 37° C. before recording. The aCSF contains (in mM) 125 NaCl, 1.25 KCl, 25 NaHCO3, 1.25 KH2PO4, 25 D-Glucose, 2 CaCl2) and 1 MgCl2, supplemented with 2 mM Na-pyruvate, 3 mM Myo-inositol and 0.4 mM L-ascorbic acid.
The acute striatum slice was transferred to the recording chamber with a constant perfusion of oxygenized aCSF at the rate of 3 ml/min. Neurons were visualized using an upright microscope (Olympus, BX-51) with a 40× water immersion objective at room temperature (˜25° C.). […] Neurons were quickly visualized under fluorescence microscope and then patch clamp were achieved under infrared light illumination and CCD camera. […]

[2] = target: T1, rM3Ds (Rattus norvegicus, UniProt P08483, A177S/A238G/A489L/DEL261-437/DEL441-478/E258S/I253V/I483M/INS256[…]/K178L/K182A/K255R/K484R/K486H/L173F/L482A/M480V/R171S/R176Q/R179M/S481M/T174R/T181R/T257A/Y148C); assay: Electrophysiological recording in caudate/putamen after intramuscular CNO, rM3Ds macaques; type: in vivo
T1 sequence (P08483 with tags, fused parts or gaps Y148C/R171S/L173F/T174R/R176Q/A177S/K178L/R179M/T181R/K182A/A238G/I253V/K255R/INS256[…]/T257A/E258S/DEL261-437/DEL441-478/M480V/S481M/L482A/I483M/K484R/K486H/A489L): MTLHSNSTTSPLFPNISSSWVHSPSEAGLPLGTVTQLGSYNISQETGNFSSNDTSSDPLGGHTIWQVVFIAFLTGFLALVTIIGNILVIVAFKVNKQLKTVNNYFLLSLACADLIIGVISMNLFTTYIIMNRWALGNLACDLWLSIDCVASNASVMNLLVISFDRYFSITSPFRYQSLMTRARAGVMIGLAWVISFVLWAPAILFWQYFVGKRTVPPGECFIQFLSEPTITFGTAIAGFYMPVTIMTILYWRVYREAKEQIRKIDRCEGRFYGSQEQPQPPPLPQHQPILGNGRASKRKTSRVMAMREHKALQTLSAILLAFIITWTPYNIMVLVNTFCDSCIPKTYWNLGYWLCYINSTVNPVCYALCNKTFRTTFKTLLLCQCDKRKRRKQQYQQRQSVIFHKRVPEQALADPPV
Procedure: Electrophysiological recording was performed through a recording chamber while the monkey was anesthetized. Neural responses were recorded by a 16-channel linear probe (Plexon Inc, Uprobe) driven by a mechanical microdrive (Alpha Omega, FlexMT). Signals were passed through a head stage (Plexon Inc, HST/16V-G20 LN) and then split and filtered between 300 Hz and 5 kHz to identify spiking activity with an amplifier system (Plexon Inc, OmniPlex). Detected spikes were then sorted by commercially available software (Plexon Inc, Offline Sorter) for further analysis. To quantify the effect of CNO/DCZ injection, neural activity was recorded for 60 minutes following CNO/DCZ injection. The response time-course for each channel was obtained by counting the spikes within every 10-minute window and then normalizing to the maximal.
To determine the effect of CNO/DCZ injection on the direction of signal change, we performed Pearson correlation between neural responses and time using the ‘corr’ function in Matlab, which generates the correlation coefficient ‘r’ and significant level ‘p’. A neuron was considered to have “Increased” activity when r>0 and p<[…]; and considered to have “Decreased” activity when r<0 and p<0.05. Otherwise, neurons were considered to be “Unchanged” in their neural activities. The responses of all increased neurons were then averaged after being normalized by the maximal response (Crowe et al., 2014; Dai and Wang, 2018; Hirokawa et al., 2019) following CNO/DCZ injection, and then plotted as a function of time to generate the normalized population response. […]

[3] = 38 total cells in the caudate/putamen
[4] = monkey CM048, 38 cells in caudate

C[N+]1([O-])CCN(C2=Nc3cc(Cl)ccc3Nc3ccccc32)CC1 [CNO, clozapine N-oxide]
excitability of transduced MSNs [1]: augmentation of excitability | cells activated (FIG. 12N) [2, 3]: 50% | cells inactivated (FIG. 12N) [2, 3]: 13.2% | cells unchanged (FIG. 12N) [2, 3]: 36.8% | neuronal activity in retrogradely labeled D1-MSNs (opto-tagging) ([2]; anesthetized macaques, AAV8R12-G88P7-HA-rM3Ds-2A-Cre): effectively induced an increase of neuronal activity | cells activated (FIG. 12F) [2, 4]: 65.8% | cells inactivated (FIG. 12F) [2, 4]: 7.9% | cells unchanged (FIG. 12F) [2, 4]: 26.3%
